Where two headings read alike, the source gives them in different places. Non-standard residues stand in square brackets, D forms with d. Residues, ends and D or L forms follow the SMILES beside them. No end group written: not given here. Hyp = O=C(O)[C@@H]1C[C@@H](O)CN1
Legend:
[1] = tested on: HIEC-6/HepG2 cell coculture system
Description: Based on the daily dose used in the clinical trials and the current recommendations of the bottle, 1200 mg of Genacol CH product (bovine) or a generic CH product (bovine) was added (3% w/v) to sterile ddH2O (Bernado & Azarcon, 2012; Bruyère et al., 2012; Feliciano et al., 2017). Three independent digestions for each CH product were completed. The vessels were placed in a 37° C. water bath, with continuous agitation. A pepsin solution was added, the pH adjusted to 2 and incubated for 30 min. Then, a bile solution was added, the pH adjusted to 7.5 and incubated for 90 min at 37° C. Pepsin (4% w/w protein basis) and pancreatin (4% w/w protein basis) were added (Aleman et al., 2013). The pancreatin digestion was stopped with the addition of NaOH, until the pH was 10 and the resulting digesta was cooled and frozen at −80° C. Digesta subsamples were taken and filtered using 0.2 μm syringe filters.
The final digesta was filtered using a molecular weight cut off (MWCO) of 10 kDa in a stirred Amicon™ ultrafiltration membrane reactor at 4° C. under a nitrogen gas pressure of 40 psi (Iskandar et al., 2015). The filtrates were freeze-dried at −50 to −60° C. and 0.85 mBar (0.64 mm Hg) (Gamma 1-16 LSC, Christ, Osterode am Harz, Germany) and stored at −80° C. until used in cell culture.
Two bovine-sourced CH products were used: Original Formula® (Genacol, Blainville, QC) (CH-GL) and a generic brand (such as Selection™, Uniprix, Quebec, Canada) (CH-GR). HIEC-6 (ATCC® CRL-3266™) and Hep G2 (ATCC® HB-8065™) cells were purchased from ATCC to represent the gastrointestinal and liver wall lining, respectively. HIEC-6 cells were cultured using OptiMEM™ 1 Reduced Serum Medium (Gibco Catalog No. 31985) with 20 mM HEPES, 10 mM GlutaMAX™ (Gibco Catalog No. 35050), 10 ng/mL Epidermal Growth Factor, 4% fetal bovine serum (FBS). HepG2 cells were grown using ATCC-formulated Eagle's Minimum Essential Medium (Catalog No. 30-2003), with 10% FBS. Cells were maintained at 37° C. with 90% relative humidity (RH) and 5% C02 in culture medium as described herein.
HIEC-6/HepG2 cell coculture system was used to determine the bioavailability of key bioactive peptides from CHs after digestion. HIEC-6 and HepG2 cells were cultured separately but then later combined in a transwell system.
HIEC-6 cells were seeded onto 24-well polyester (PET) ThinCert™ inserts from Greiner Bio-One (Kremsmünster, Austria) at a density of 1×10^5 cells/well. The medium was changed every 2 days and the cells were grown for a total of 8-9 days. Transepithelial electrical resistance (TEER) was measured using a volt-ohmmeter to assess integrity of monolayer. […] Three individual plate experiments were completed for each CH product.
At time 0, the apical medium was replaced with medium containing 2 mg/ml of freeze-dried CH dissolved in medium using either the Genacol (GL) peptide or the Generic (GR) CH products. HepG2 cells were added to the basolateral side of the transwell (1 million cells/mL). The plates were incubated for 2 h at 37° C., 5% C02. Subsamples were taken at time 0, and after 2 h.

Caco-2 cells = details: cited from earlier work
[2] = human, in vivo, po, 80 mg/kg; cited from earlier work
[3] = molecular target: dipeptidyl peptidase-4 (DPP-IV) (Homo sapiens, UniProt P27487); details: literature; cited from earlier work
dipeptidyl peptidase-4 (DPP-IV), sequence (P27487 whole entry, species assumed): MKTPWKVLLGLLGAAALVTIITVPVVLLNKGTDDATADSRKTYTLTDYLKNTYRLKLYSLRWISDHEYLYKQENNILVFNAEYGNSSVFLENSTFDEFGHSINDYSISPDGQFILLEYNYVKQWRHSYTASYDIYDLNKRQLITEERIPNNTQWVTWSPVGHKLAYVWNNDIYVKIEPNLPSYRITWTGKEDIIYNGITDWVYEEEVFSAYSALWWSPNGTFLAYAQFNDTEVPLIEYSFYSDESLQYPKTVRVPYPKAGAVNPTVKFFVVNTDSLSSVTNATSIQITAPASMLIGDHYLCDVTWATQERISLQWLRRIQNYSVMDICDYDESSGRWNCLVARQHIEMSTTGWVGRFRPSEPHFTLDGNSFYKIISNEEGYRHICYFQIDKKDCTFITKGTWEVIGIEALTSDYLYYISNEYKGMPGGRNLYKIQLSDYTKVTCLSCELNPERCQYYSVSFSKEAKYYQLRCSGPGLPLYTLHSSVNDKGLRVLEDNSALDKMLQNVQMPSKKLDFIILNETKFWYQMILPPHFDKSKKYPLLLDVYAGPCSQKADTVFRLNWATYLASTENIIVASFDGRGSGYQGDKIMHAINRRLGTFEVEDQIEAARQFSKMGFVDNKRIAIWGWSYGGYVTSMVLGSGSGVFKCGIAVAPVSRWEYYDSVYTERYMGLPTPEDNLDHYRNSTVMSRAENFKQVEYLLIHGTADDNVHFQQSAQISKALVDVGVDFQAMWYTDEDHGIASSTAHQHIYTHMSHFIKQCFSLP

[4] = cited from earlier work

| Peptide concentration, Basolateral T0 [1] | Molecule | permeability ([4]; not told) | also measured |
| --- | --- | --- | --- |
| 0 ± 0 µg/mL | C[C@H](N)C(=O)N1C[C@H](O)C[C@H]1C(=O)O [Ala-Hyp] (H-Ala-[Hyp]-OH; N-terminus and C-terminus assumed) | – | – |
| 0 ± 0 µg/mL | NCC(=O)N1CCC[C@H]1C(=O)N1C[C@H](O)C[C@H]1C(=O)O [Gly-Pro-Hyp] (H-Gly-Pro-[Hyp]-OH; N-terminus and C-terminus assumed) | – | percentage transported across the cell monolayer (Caco-2 cells): 3.59%; greatest content found in the blood [2]: ~22 µM; time of peak blood content [2]: 1 h |
| 0 ± 0 µg/mL | NCC(=O)N1CCC[C@H]1C(=O)O [Gly-Pro] (H-Gly-Pro-OH; N-terminus and C-terminus assumed) | – | – |
| 0 ± 0 µg/mL | O=C(O)[C@@H]1C[C@@H](O)CN1C(=O)[C@@H]1CCCN1 [Pro-Hyp] (H-Pro-[Hyp]-OH; N-terminus and C-terminus assumed) | – | – |
| – | Gly-Ala-[Hyp] | – | activity against DPP-IV [3]: only Gly-Pro-Hyp showed any activity |
| – | Gly-Pro-Ala | – | activity against DPP-IV [3]: only Gly-Pro-Hyp showed any activity |
| – | HLPLP | 0.018% | – |
| – | LPYPY | – | permeability ([4]; milk-derived peptides, literature): 0.05% |
| – | SDK | 21.68% | – |
| – | YPY | 5.56% | – |

Reference: patent publication US20230374112A1, “Bioactive Collagen Peptides, Method Of Production Thereof, And Use Thereof” (CORPORATION GENACOL CANADA INC., priority 2020, published 2023)
